In PMC11542186, “Pin1 WW Domain Ligand Library Synthesized with an Easy Solid-Phase Phosphorylating Reagent” (Biochemistry, 2024):

Experiments:
[1] = target: T1, Pin1 WW domain (Pin1–HRP) (Homo sapiens, UniProt Q13526); assay: ELEBA competitive binding Kd-obs determination; conditions: for Kd: competitive with plate-linked L1, concentration at which % Pin1-HRP bound to the plate is 50%, purified resynthesized ligands, 200 pM Pin1–HRP
T1 construct: purchased R&D Systems
Protocol: Concentration-dependent ELEBAs were performed for ligands 1{2, d}, 1{18, l}, cis-1{2, n}, and trans-1{2, n} obtained by large-scale manual solid-phase synthesis and purification. The cis- and trans-isomers of 1{2, d} were separated by HPLC. The two diastereomers (∼ 1:1) of 1{18, l} were used as a mixture because they were inseparable in our systems. Competitive dissociation constants (Kd-obs) were measured by ELEBA (Figure 4). Kd-obs values were normalized to percentage Pin1–HRP bound to the plate-linked ligand by setting the lowest concentration of competitive ligand in solution to 100% binding.[32]Kd-obs is defined as the concentration of a ligand where the % Pin1-HRP bound to the plate is 50%.
(§1) The Pin1 WW domain ligand, Fmoc–VPRpTPVGGGK–NH2, (100 μL/well, 245 μM stock solution) was covalently attached to a 96-well plate through the ε-amino group of the Lys side chain at pH 11.0, as published.[44] Ligands were dissolved in DMSO at stock concentrations of ca. 50 mM by weight. Competitive binding with plate-linked Fmoc–VPRpTPVGGGK–NH2L1 of pSer–Pro dipeptides was measured at ca. 600 μM for primary screening. In the primary assays, all library members were screened with the crude products. 1{1-21, d} were measured as mixtures of cis- and trans-isomers. Library members synthesized from racemic reagents, such as 1{1-21, c}, 1{1-21, l}, 1{1-21, q}, 1{3, a-q} and 1{8, a-q} were measured as diastereomeric mixtures. The library members were dissolved in DMSO as stock solutions with a concentration of about 37 mM based on estimated yields. The DMSO stock solution of each compound (4 μL) was added into a solution of recombinant Pin1–HRP (R&D Systems) in a PBS buffer with 2% BSA (pH = 7.3). DMSO (4 μL) was used as a negative control. The final volume of the solution was 250 μL, the final concentration of Pin1–HRP was 200 pM, and the estimated final compound concentration was 590 μM. The resulting solution was preincubated for 30 min at ambient temperature, and was added into two wells (100 μL each, for assay in duplicate) of the ligand-linked plate. The solutions were incubated for another 1 h. The solutions were removed by inverting and shaking the plate, and the plate was washed with buffer ([…], and 0.05% Tween 20 in PBS at pH 7.3) three times. A 1:1 solution of hydrogen peroxide and 3,3,5,5′-tetramethylbenzidine (100 μL) was added into each plate well, and incubated in the dark for 20 min. A 2N H2SO4 solution (50 μL) was added to each well to quench the reaction, and the absorbance of was determined at 450 nm. The percentage of Pin1–HRP bound to the plate (% binding) was calculated by eq 1. To calculate the absorbance of a plate well in eq 1, the blank ligand-linked plate was predetermined at the same wavelength, and the absorbance of the blank well was subtracted from the absorbance of the same well containing the final solution. [drawing 2] 1
The competitive dissociation constants, Kd-obs, of cis-1{2, d}, trans-1{2, d}, 1{2,o}, and 1{18, m} were determined by ELEBA after the large-scale synthesis, HPLC purification, and quantification. The final concentrations of each compound were: 2.0, 10, 30, 50, 100, 200, 300, 500, 700, 1000, and 2000 μM. Ligands stock concentrations were 88 mM by weight, and the final concentrations for competitive dissociation constants (Kd) were 2000, 1000, 700, 500, 300, 200, 100, 50, 30, 10, and 5.0 μM. […]

[2] = target: T2, Pin1 WW domain (full-length 15N-Pin1) (Homo sapiens, UniProt Q13526); assay: NMR 15N-1H HSQC chemical shift perturbation titration; type: binding; conditions: global two-state fit of WW domain NH CSPs; 295 K; pH 6.6; 48.6 μM Pin1; read-out: NMR CSP Kd
T2 construct: Full-length Pin1 was overexpressed and purified as described previously; made in house
T2 sequence (Q13526 whole entry, the tested form may be a part): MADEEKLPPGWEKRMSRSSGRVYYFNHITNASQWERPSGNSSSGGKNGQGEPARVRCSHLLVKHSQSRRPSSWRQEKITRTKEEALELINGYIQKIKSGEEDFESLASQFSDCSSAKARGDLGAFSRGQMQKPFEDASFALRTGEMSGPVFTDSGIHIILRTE
Excerpt: The ELEBA was developed as a method for high-throughput screening, rather than as an absolute measure of binding affinity. […] Since L1 is linked to the plate, ELEBA is not to be taken as a direct measurement of binding affinity.[32] We undertook NMR measurements to determine the affinity and location of binding directly by NMR to distinguish between binding to the catalytic and WW domains of Pin1. Standard NMR backbone ^15N–^1H chemical shifts were mapped onto existing assignments of Pin1 by recording 2-D ^15N–^1H HSQC spectra of full-length ^15N-Pin1 at different ligand concentrations (Figures S2–S5). NH cross-peaks showing ligand-induced chemical shift perturbations (CSPs) identified residues affected by binding. The largest magnitude CSPs were localized to the WW domain.
Full-length Pin1 was overexpressed and purified as described previously.[47] The final NMR buffer conditions were 30 mM imidazole-D4, pH 6.6, with 30 mM NaCl, 0.03% NaN3, 5 mM DTT-d10, and 90%H2O/10%D2O. The ligand stock solutions included 2.4 and 24 mM for 1{18,l}; 2.4 and 16 mM for trans-1{2,d}; 2.4 and 12 mM for cis-1{2,d}; 2.4 mM and 12 mM for 1{2,n}. The stock concentrations were confirmed by standard 1-D ^1H NMR of the samples diluted in the buffer described above.
The NMR titration spectra were recorded at a nominal temperature of 295 K, on a Bruker Avance 700 MHz (16.4 T) spectrometer equipped with a cryogenically cooled TCI probe. Sequential resonance assignments for wild type Pin1 were from our prior publications.[34],[35],[46]−[48] Data processing and cross-peak analysis used Topspin 1.3 and 2.1 (Bruker Biospin, Inc.), and Sparky (T. D. Goddard and D. G. Kneller, SPARKY 3, University of California, San Francisco). The initial Pin1 concentration (apo-Pin1) was 48.6 μM. We recorded 2-D ^15N–^1H HSQC spectra per Mori et al.[51] after each addition of ligand to get NH binding isotherms (NH chemical shift perturbations as a function of the total ligand concentration). Each 2-D data set consisted of 128 FIDs (64 complex points), with 16 scans per FID and a recycle time of 1s. The ^1H^N spectral width was 15 ppm, centered at 4.703 ppm; the ^15N spectral width was 35.24 ppm, centered at 118 ppm. The binding-induced ^15N–^1H chemical shift perturbations (CSPs) were calculated by eq 3. [drawing 4] 3 [35]
The ΔδH and ΔδN terms are the amide ^1H and ^15N chemical shift differences relative to isolated Pin1. To estimate the ligand Kd values for WW domain binding, we globally fitted WW domain NH binding isotherms to the expression for the bound protein fraction in a standard two-state binding equilibrium, P + L ⇌ PL, as described in our previous Pin1 studies.[35] The monitored WW domain residues included K13, R14, M15, S16, G20, R21, A31, S32, Q33, W34, and E35. […]

[3] = target: T1, Pin1 WW domain (Pin1–HRP); assay: ELEBA primary screening assay of the library; type: binding; conditions: separate plate of groups A and B (L2 control 85.0443); crude library members; DMSO = 100%; mean of N = 2
Protocol: (§2) The library was screened by the ELEBA we reported previously.[44] The crude products resulting from diethyl ether precipitation were used for the primary and secondary ELEBA without additional purification. The concentrations of the crude products were estimated based on quantitative yields; actual concentrations were thus lower, depending on yield and purity. The library products were dissolved in DMSO as stock solutions for assays. […] Recombinant human Pin1 conjugated to horseradish peroxidase (Pin1–HRP) was used in the binding assays.[44] Fmoc-VPRpTPVGGGK-NH2 L2 was used as the positive control and DMSO was used as the negative control on each plate. The percent of Pin1–HRP bound to the plate was calculated by normalizing the binding with DMSO to be 100%. In the primary assays (Figure S1), 14 of the best library members were identified: 1{2,d}, 1{18,f}, 1{20,f}, 1{10, l}, 1{13, l}, 1{18, l}, 1{20, l}, 1{10, n}, 1{18, n}, 1{19, n}, 1{2, n}, 1{20, n}, 1{14, o}, 1{3, o}. In the secondary assay, these ligands were measured again at 270 μM, and three hits, 1{2, d}, 1{18, l} and 1{2, n}, were chosen for further analysis (Figure 3).
as §1, with “2] 1 […]” for “2] 1”
The Fmoc-Ser(2- […]
cyanoethylphosphate)-OH product was cleaved from the resin with TFA. 1H NMR indicated the presence of the Fmoc group, implying that the substrate was successfully attached to the resin (data not shown). To develop the coupling methods, 2-(2-naphthyl)ethylamine and propionic acid were reacted with the pSer–Pro resin. The resulting propanoyl-pSer–Pro–(2-(2-naphthyl)ethyl)-amide (1H NMR below) was excluded from the library assays.
Figure S1 (following pages). Ligands (group A – O) were screening using ELEBA at ca. 266 µM.
Fmoc-VPRpTPVGGGK-NH2 L2 was used as positive control at 76-87 µM from stock solutions […]
of 4.3-4.8 mM. […]

[4] = target: T1, Pin1 WW domain (Pin1–HRP); assay: ELEBA secondary binding assay; conditions: 270 μM; crude product; DMSO = 100%
Protocol: as §2
The best ligands from each group that blocked Pin1 WW domain binding of HRP-Pin1 bound to plate were reassayed at 270 μM to identify the best ligands through the same procedures above.

[5] = target: Pin1 WW domain; design: method as in PMID 10932246; conditions: read-out: affinity for the WW domain; cited from earlier work
[6] = target: full-length Pin1; design: method as in PMID 10932246; conditions: read-out: affinity for full-length Pin1; cited from earlier work
[7] = tested on: Pin1 catalytic domain; design: method as in PMID 10932246; conditions: cited from earlier work

T1 sequence (Q13526 whole entry, the tested form may be a part): as above

Compound CC(C)(Oc1ccc(Cl)cc1)C(=O)NC(COP(=O)(O)O)C(=O)N1CCCC1C(=O)Nc1ccc2[nH]ncc2c1 (centres unmarked) [1{2, n}] has a Kd [1] of 206 ± 3 µM and a Kd [2] of 208 ± 6 µM.

Compound COc1ccc2c(c1)C(CC(=O)NC(COP(=O)(O)O)C(=O)N1CCCC1C(=O)NNC(=O)c1ccoc1)CC2=O (centres unmarked) [1{18, l}] has a Kd [1] of 130 ± 3 µM and a Kd [2] of 105 ± 9 µM.

For O=C(/C=C/c1c[nH]cn1)N[C@@H](COP(=O)(O)O)C(=O)N1CCC[C@H]1C(=O)N1CCOCC1 [1{20,b}], the “% of Pin1-HRP bound to plate-linked ligand” value [3] was 76.1089% and the “ELEBA secondary screen, % of baseline activity” value [4] was “ca. 140%”.

For O=C(C=CSc1ccccc1)NC(COP(=O)(O)O)C(=O)N1CCCC1C(=O)Nc1ccc2[nH]ncc2c1 (stereo not drawn) [cis-1{2, d}], the “relative potency cis vs trans isomer” value ([1]; ELEBA Kd-obs of cis-1{2, d} vs trans-1{2, d}) was “about three times as potent as trans-1{2, d}”, the Kd [1] was 263 ± 6 µM and the Kd [2] was 95 ± 6 µM.

With O=C(C=CSc1ccccc1)NC(COP(=O)(O)O)C(=O)N1CCCC1C(=O)Nc1ccc2[nH]ncc2c1 (stereo not drawn) [trans-1{2, d}] the Kd [1] was 820 ± 6 µM and the Kd [2] was 214 ± 25 µM.

In the case of Fmoc–VPRpTPVGGGK–NH2 [Compound L1], the Kd [5] is given as 7.7 µM, the Kd [6] is given as 4.9 µM and the “binding to the catalytic domain” value [7] is given as “no binding”.
